Test results taken from patent US20110268800A1, “Unsaturated fatty acids as thrombin inhibitors” (LTS Lohmann Therapie-Systeme AG, priority 2005, published 2011).

Target: thrombin (Homo sapiens, UniProt P00734)
Test: thrombin inhibition test, amidolytic assay with Chromozym TH
Format: biochemical
Settings: for Inhibition (%): thrombin, substrate Chromozym TH, pH 8.0, room temperature, 15 min preincubation; for thrombin-inhibiting action of fatty acids identified in the plant drugs (in words): free fatty acids separated from hexane/isopropanol (3:2) lipid extracts by preparative thin layer chromatography
Method: As the testing system, an amidolytic assay with Chromozym TH (tosylglycyl-prolyl-arginine-4-nitroanilide acetate) was used as a substrate for thrombin. The principle of the test system is based on the cleavage of the substrate by thrombin, and on the release of p-nitroaniline, which absorbs at a wavelength of 405 nm. The absorption increase over time was detected photometrically. The inhibition of thrombin was calculated by a comparison between the linear initial phase of the absorption increase of the test samples containing the extract, and the blank value.
For the thrombin inhibition test, the method according to Sturzebecher was employed, with the exception of the enzyme concentration (Sturzebecher, J., Vieweg, H. (1995). Structure-Activity Relationships of Inhibitors derived from 3-Amidinophenyl-alanine. J Enzyme Inhib, 9, 87-99). • Buffer: 608 mg Tris buffer and 900 mg NaCl were dissolved in 100 ml bidistilled water. The pH value of the buffer was subsequently set to 8.0, using HCl (2 mMol) (concentrations in the sample: 0.05 mol/1 Tris HCL, 0.154 mol/1 NaCl). The substance to be examined was dissolved in ethanol (5% total volume). This was followed by filling up with buffer. • Enzyme: 1 mg/ml (=50 NIH—U/ml) thrombin was dissolved in 0.9% NaCl solution (stock solution). To prepare the sample, this solution was diluted 1:100 with a solution of 0.9% NaCL and 1% bovine serum albumin. • Substrate: 6.6 mg Chromozym TH was dissolved in 10 ml bidistilled water (concentration=1 mmol/l). • Measurement sample: 200 μl buffer/substance • 25 μl substrate • 50 μl enzyme • Conditions: Room temperature • Implementation: Buffer and enzyme are added together by pipetting and incubated for 15 min. The reaction was started by adding the substrate. • For measuring the absorption, a plate reader, iEMS Reader MF from Labsystems, was used with 96-well microtitre plates. The measurements took place at a wavelength of 405 nm, every 10 seconds, 60 measurements. Prior to start of the measurements, the microtitre plate was shaken at 600 rpm. • Evaluation: The measurements were recorded by means of iEMS Accent Software, and evaluated with Microsoft Excel 97 Software. • To calculate inhibition, the slope in the linear initial phase of the absorption increase in the samples containing the substance to be examined was compared with the slope of the absorption increase in the blank sample. For evaluation, the first 5 measured values were left out of consideration since the bubbles forming on account of the mixing can lead to problems at the beginning of the reaction. The inhibition is calculated as follows:
Inhibition=100−(slopeInhibitor/slopeBlank value*100)

| SMILES | Inhibition (%) (test concentration not printed) | also measured |
| --- | --- | --- |
| C=CCCCCCCCC(=O)O [9-Decenoic acid] | −3.7 | – |
| CCCCCC/C=C\CCCCCCCCCC(=O)O [Vaccenic acid, 11-cis-Octadecenoic acid] | 79.9 | Inhibition (%) (test concentration not given, listed as cis-vaccenic acid): 80% |
| CCCCCCCC/C=C\CCCCCCCC(=O)O [Oleic acid, 9-cis-Octadecenoic acid] | 65.8 | thrombin-inhibiting action of fatty acids identified in the plant drugs (in words): identified as the thrombin-inhibiting substances; Inhibition (%) (test concentration not printed, listed as oleic acid): 66% |
| CC/C=C\C/C=C\C/C=C\C/C=C\C/C=C\C/C=C\CCC(=O)O [Docosahexaenoic acid, 4-cis, 7-cis, 10-cis, 13-cis, 16-cis, 19-cis-Docosahexaenoic acid] | −2.5 | – |
| CCCCCCCC/C=C\CCCCCCCCCCCC(=O)O [Eruca acid, 13-cis-Docosaenoic acid] | 7.8 | – |
| CCCCCCCC/C=C/CCCCCCCC(=O)O [Elaidinic acid, 9-trans-Octadecenoic acid] | 7.4 | – |
| CCCCCC[C@@H](O)C/C=C/CCCCCCCC(=O)O (stereo in doubt) [Ricinoleic acid, 12-Hydroxy-9-cis-octadecenoic acid] | 43.9 | – |
| CCCCCCCC(=O)O [Octanoic acid] | 0.7 | – |
| CCCCCCCCCCCCCCCC(=O)O [Palmitic acid, Hexadecanoic acid] | 1.4 | thrombin-inhibiting action of fatty acids identified in the plant drugs (in words): without effect |
| CC/C=C\C/C=C\C/C=C\CCCCCCCC(=O)O [Linolenic acid, 9-cis, 12-cis, 15-cis-Octadecatrienoic acid] | 75.5 | – |
| CCCCC/C=C\C/C=C\CCCCCCCC(=O)O [Linoleic acid, 9-cis,12-cis-Octadecadienoic acid] | 71.7 | thrombin-inhibiting action of fatty acids identified in the plant drugs (in words): responsible for the thrombin-inhibiting action |
| CCCCC/C=C\C/C=C\C/C=C\C/C=C\CCCC(=O)O [Arachidonic acid, 5-cis, 8-cis, 11-cis, 14-cis-Eicosatetraenoic acid] | 75.2 | – |
| CC/C=C\C/C=C\C/C=C\CCCCCCCCCC(=O)O [Eicosatrienoic acid, 11-cis, 14-cis, 17-cis-Eicosatrienoic acid] | 76.0 | – |
| CCCCCCCC/C=C\CCCCCCCCCC(=O)O [Eicosenoic acid, 11-cis-Eicosenoic acid] | 60.7 | thrombin-inhibiting action of fatty acids identified in the plant drugs (in words): identified as the thrombin-inhibiting substances |
| CC/C=C\C/C=C\C/C=C\C/C=C\CCCCC(=O)O [Stearidonic acid, 6-cis, 9-cis, 12-cis, 15-cis-Octadecatetraenoic acid] | 2.4 | – |
| CC/C=C\C/C=C\C/C=C\C/C=C\C/C=C\CCCC(=O)O [Eicosapentaenoic acid, 5-cis, 8-cis, 11-cis, 14-cis, 17-cis-Eicosapentaenoic acid] | −1.0 | – |
